# Patent US20050019424A1, “Anti-angiogenesis combination therapies comprising pyridazine or pyridine derivatives” (priority 2001, published 2005)
# pIC50: −log10 of the molar value.
# Tests used:
# CYP2C9 = target: T1, CYP2C9 (Homo sapiens, UniProt P11712); assay: Fluorometric cytochrome P450 inhibition assay, CYP2C9; assay type: in vitro ADME; conditions: cDNA-expressed human CYP2C9 Supersomes, substrate DBF, 5 point dose response; read-out: CYP2C9 Inh. IC50
# T1 construct: purchased GENTEST Corporation P258
# Experimental: The ability of the compounds described herein to inhibit cytochrome P450 activity was determined in vitro using cDNA-expressed human cytochrome P450 enzymes (Supersomes) obtained from GENTEST Corporation and various fluorescent probe substrates. Fluorometric Cytochrome P450 Inhibition assays were conducted in 96 well micotitre plates as described by GENTEST Corporation, Woburn Mass. […] Compounds were dissolved in 70% DMSO such that the concentration of DMSO in the assay was 0.7%. […] Incubations with known inhibitors of each P450 isoform were included as positive controls. Fluorescence per well was measured using a Spectramax Gemini XS (Molecular Devices) and IC50 values of the compounds tested were determined using the 5 point dose response. The sigmoidal dose response curves were generated by non linear regression using a four parameter logistic equation.
# CYP2C19 = CYP2C19 (Homo sapiens, UniProt P33261); assay: biochemical
# Experimental: (§1) The ability of the compounds described herein to inhibit cytochrome P450 activity was determined in vitro using cDNA-expressed human cytochrome P450 enzymes (Supersomes) obtained from GENTEST Corporation and various fluorescent probe substrates. Fluorometric Cytochrome P450 Inhibition assays were conducted in 96 well micotitre plates as described by GENTEST Corporation, Woburn Mass. […] Compounds were dissolved in 70% DMSO such that the concentration of DMSO in the assay was 0.7%. Varying concentrations of all test compounds (10 μM, 3 μM, 1 μM, 300 nM and 100 nM) were incubated with Supersomes individually expressing the five principal drug metabolizing cytochrome P450s, CYP1A2, 2C9, 2C19, 2D6, and 3A4 and their respective substrates. […] Incubations with known inhibitors of each P450 isoform were included as positive controls. Fluorescence per well was measured using a Spectramax Gemini XS (Molecular Devices) and IC50 values of the compounds tested were determined using the 5 point dose response. The sigmoidal dose response curves were generated by non linear regression using a four parameter logistic equation.
# CYP1A2 = target: T2, CYP1A2 (Homo sapiens, UniProt P05177); assay: biochemical
# T2 sequence (P05177 1-516): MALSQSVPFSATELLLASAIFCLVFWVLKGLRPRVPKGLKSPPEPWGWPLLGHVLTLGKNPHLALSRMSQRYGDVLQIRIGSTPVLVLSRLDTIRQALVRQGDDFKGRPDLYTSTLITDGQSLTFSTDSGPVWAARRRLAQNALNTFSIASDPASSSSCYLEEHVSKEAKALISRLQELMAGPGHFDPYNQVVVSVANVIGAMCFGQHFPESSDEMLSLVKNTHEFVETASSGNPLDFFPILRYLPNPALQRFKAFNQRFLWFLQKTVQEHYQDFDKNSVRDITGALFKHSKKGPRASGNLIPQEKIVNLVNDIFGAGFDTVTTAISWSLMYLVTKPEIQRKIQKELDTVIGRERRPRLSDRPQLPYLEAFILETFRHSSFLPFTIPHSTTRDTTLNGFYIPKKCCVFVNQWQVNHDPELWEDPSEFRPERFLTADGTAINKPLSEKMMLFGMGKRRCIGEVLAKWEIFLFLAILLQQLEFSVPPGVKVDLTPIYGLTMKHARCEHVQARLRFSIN
# Experimental: as §1
# CYP2D6 = CYP2D6 (Homo sapiens, UniProt P10635); assay: biochemical
# Experimental: as §1
# CYP3A4 = CYP3A4 (Homo sapiens, UniProt P08684); assay: biochemical
# Sequence of CYP3A4 (P08684 whole entry): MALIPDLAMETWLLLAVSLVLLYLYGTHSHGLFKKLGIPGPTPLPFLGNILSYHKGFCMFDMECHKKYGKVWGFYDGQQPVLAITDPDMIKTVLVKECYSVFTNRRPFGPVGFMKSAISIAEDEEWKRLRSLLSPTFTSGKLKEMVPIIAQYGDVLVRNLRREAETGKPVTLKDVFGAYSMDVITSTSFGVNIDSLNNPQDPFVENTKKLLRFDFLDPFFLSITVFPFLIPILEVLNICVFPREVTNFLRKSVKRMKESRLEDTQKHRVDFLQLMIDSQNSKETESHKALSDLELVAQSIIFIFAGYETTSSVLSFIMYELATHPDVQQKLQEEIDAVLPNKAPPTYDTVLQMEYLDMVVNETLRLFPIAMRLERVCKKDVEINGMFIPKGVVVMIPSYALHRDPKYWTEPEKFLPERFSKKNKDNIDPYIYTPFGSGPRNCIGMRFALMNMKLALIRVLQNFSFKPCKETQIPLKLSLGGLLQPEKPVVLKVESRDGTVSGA
# Experimental: as §1
# T1 sequence (P11712 whole entry): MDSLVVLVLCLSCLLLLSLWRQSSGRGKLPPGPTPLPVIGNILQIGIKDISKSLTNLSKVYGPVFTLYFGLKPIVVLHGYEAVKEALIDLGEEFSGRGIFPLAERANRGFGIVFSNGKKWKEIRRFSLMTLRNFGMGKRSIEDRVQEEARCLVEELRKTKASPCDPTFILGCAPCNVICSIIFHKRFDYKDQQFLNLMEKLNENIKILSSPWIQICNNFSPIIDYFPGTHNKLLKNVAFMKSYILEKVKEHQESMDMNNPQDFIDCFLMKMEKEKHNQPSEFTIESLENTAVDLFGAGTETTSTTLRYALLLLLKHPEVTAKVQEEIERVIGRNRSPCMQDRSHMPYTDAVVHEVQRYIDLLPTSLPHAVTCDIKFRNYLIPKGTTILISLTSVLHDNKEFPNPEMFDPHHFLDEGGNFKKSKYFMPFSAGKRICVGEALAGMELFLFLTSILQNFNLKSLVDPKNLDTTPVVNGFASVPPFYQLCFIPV
# Sequence of CYP2C19 (P33261 whole entry): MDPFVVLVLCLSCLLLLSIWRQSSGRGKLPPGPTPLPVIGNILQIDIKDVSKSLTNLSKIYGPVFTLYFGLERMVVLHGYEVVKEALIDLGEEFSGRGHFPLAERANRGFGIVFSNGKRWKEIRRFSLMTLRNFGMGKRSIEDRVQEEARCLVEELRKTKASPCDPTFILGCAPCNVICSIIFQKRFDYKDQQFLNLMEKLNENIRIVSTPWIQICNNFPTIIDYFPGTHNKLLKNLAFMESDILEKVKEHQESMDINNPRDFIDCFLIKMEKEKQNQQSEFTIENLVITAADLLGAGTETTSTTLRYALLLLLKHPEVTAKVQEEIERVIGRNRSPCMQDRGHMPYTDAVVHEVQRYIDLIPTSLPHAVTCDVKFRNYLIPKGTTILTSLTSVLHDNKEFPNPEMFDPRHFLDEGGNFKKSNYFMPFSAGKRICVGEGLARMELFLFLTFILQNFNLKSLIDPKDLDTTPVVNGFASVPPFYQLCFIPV
# Sequence of CYP2D6 (P10635 whole entry): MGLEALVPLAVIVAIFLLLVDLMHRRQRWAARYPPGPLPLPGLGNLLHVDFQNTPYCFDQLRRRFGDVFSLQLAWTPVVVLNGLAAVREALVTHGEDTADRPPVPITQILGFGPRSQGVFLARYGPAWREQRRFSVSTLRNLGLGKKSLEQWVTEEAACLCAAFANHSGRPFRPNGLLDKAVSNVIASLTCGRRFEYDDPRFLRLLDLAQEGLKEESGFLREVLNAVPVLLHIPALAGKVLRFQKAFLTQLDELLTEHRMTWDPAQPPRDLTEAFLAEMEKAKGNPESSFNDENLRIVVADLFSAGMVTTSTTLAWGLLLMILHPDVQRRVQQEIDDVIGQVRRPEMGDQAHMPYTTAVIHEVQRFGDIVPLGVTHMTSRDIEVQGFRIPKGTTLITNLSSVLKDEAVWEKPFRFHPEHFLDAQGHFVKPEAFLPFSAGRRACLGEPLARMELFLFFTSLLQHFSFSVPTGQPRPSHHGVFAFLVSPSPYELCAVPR
pIC50 (CYP2C9),pIC50 (CYP2C19),pIC50 (CYP1A2),pIC50 (CYP2D6),pIC50 (CYP3A4),Compound
< 4.70,4.82,< 4.70,< 4.70,5.00,NC(=O)c1cc(Cc2nnc(Nc3ccc(Cl)cc3)c3ccccc23)ccn1
5.24,4.96,< 4.70,< 4.70,5.66,CNC(=O)c1cc(Cc2nnc(Nc3ccc(Cl)cc3)c3ccccc23)ccn1
6.02,5.27,5.82,5.89,6.38,NC(=O)c1cc(COc2nnc(Nc3ccc(Cl)cc3)c3ccccc23)ccn1
< 4.70,< 4.70,< 4.70,< 4.70,< 4.70,CNC(=O)c1cc(COc2nnc(Nc3ccc(Cl)cc3)c3ccccc23)ccn1
6.17,5.77,6.18,6.11,6.41,Clc1ccc(NC2=NN=C(OCc3ccncc3)C3OC=CC23)cc1 (stereo not shown)
< 4.70,< 4.70,4.77,< 4.70,5.68,NC(=O)c1cc(COC2=NN=C(Nc3ccc(Cl)cc3)C3C=COC23)ccn1 (stereo not shown)
< 4.70,< 4.70,< 4.70,< 4.70,4.72,CNC(=O)c1cc(COC2=NN=C(Nc3ccc(Cl)cc3)C3C=COC23)ccn1 (stereo not shown)
< 4.70,< 4.70,5.46,< 4.70,4.96,CN(C)C(=O)c1cc(COC2=NN=C(Nc3ccc(Cl)cc3)C3C=COC23)ccn1 (stereo not shown)
< 4.70,< 4.70,< 4.70,< 4.70,5.48,O=C(NC1CC1)c1cc(COC2=NN=C(Nc3ccc(Cl)cc3)C3C=COC23)ccn1 (stereo not shown)
6.34,5.12,6.30,6.40,6.92,Clc1ccc(NC2=NN=C(OCc3ccncc3)C3SC=CC23)cc1 (stereo not shown)
5.33,< 4.70,5.48,4.85,6.00,NC(=O)c1cc(COC2=NN=C(Nc3ccc(Cl)cc3)C3C=CSC23)ccn1 (stereo not shown)
< 4.70,< 4.70,< 4.70,< 4.70,< 4.70,CNC(=O)c1cc(COC2=NN=C(Nc3ccc(Cl)cc3)C3C=CSC23)ccn1 (stereo not shown)
6.96,7.15,6.77,6.68,6.85,Clc1ccc(Nc2ncc(Cc3ccncc3)c3ccccc23)cc1
5.72,5.92,5.48,4.82,5.92,NC(=O)c1cc(Cc2cnc(Nc3ccc(Cl)cc3)c3ccccc23)ccn1
5.80,6.07,5.42,5.00,5.89,CNC(=O)c1cc(Cc2cnc(Nc3ccc(Cl)cc3)c3ccccc23)ccn1
5.41,5.00,< 4.70,< 4.70,< 4.70,Clc1ccc(Nc2nnc(Nc3ccc4ncsc4c3)c3sccc23)cc1
< 4.70,< 4.70,5.38,< 4.70,5.74,CNC(=O)c1cc(COc2nnc(Nc3ccc(OC)cc3)c3ccoc23)ccn1
< 4.70,–,< 4.70,< 4.70,< 4.70,CNC(=O)c1cc(COc2nnc(Nc3ccc(F)cc3)c3ccoc23)ccn1
< 4.70,–,< 4.70,< 4.70,< 4.70,CNC(=O)c1cc(COc2nnc(Nc3cccc(C)c3)c3ccsc23)ccn1
5.40,< 4.70,5.35,< 4.70,6.32,CNC(=O)c1cc(COc2nnc(Nc3ccc4c(c3)CCC4)c3ccoc23)ccn1
< 4.70,< 4.70,4.96,< 4.70,5.12,CNC(=O)c1cc(COc2nnc(Nc3ccc4c(c3)OCC4)c3ccoc23)ccn1
6.19,6.62,5.83,6.48,–,"Clc1ccc(Nc2nnc(Cc3ccncc3)c3ccccc23)cc1 [WO 98/35958 (Example 4), reference compound]"
6.54,6.10,6.62,6.48,7.15,"Clc1ccc(Nc2nnc(OCc3ccncc3)c3ccccc23)cc1 [WO 98/35958 (Example 50), reference compound]"
